What was measured:
[1] = Liver distribution in Wistar rats; settings: liver; for increase in Cmax on co-administration vs single treatment / exposure (AUC) of metabolite as share of the exposure of BBR / AUC ± SE / Cmax / Tmax / increase in AUC on co-administration vs single treatment: Wistar rats; for AUC ± SE / Cmax / half-life / Tmax: n = 5; for Cmax / half-life / Tmax: male, Wistar, rat, po; for Cmax: Cmax ± SE; for half-life: T1/2, Wistar rats
[2] = test system: primary rat hepatocytes; assay: Hepatic metabolism in primary hepatocytes; settings: 3 h
[3] = test system: GK rats; assay: NFBG and FBG levels in GK rats, 6-week oral treatment; type: in vivo, rat; settings: during 6-week treatment, TB-2 33.3, BBR 66.7, TB-2+BBR 100, metformin 200 mg/kg/day
Method: (§1) Four-week-old male GK rats were fed a high-fat diet, and age-matched non-diabetic Wistar rats were fed standard chow as the control group. Under these dietary conditions, blood glucose was estimated each week for 7 weeks in 12-h fasted rats using a portable glucometer (One Touch Sure Step Meter, Johnson & Johnson, United States) by drawing the blood from the tail vein. GK rats with fasting blood glucose levels (FBG) above 16.7 mM were considered as diabetic rats, and only uniformly diabetic rats were used in this study. […] All the drugs were suspended in 0.5% carboxymethylcellulose sodium (CMC-Na) solution for oral gavage (10 ml/kg) once per day (at 9:00) for 6 weeks. Simultaneously, the Wistar and vehicle groups received vehicle over the treatment period. Food consumption and body weight were measured every week throughout the experimental periods. Non-fasting blood glucose (NFBG) levels were determined by collecting blood samples from the tail vein (at 9:00), and FBG levels were determined after a 6-h fast (at 15:00) on days 0, 7, 14, 21, and 42. On day 28, an oral glucose tolerance test (OGTT) was performed after an overnight fast. […] On day 42, the rats were anesthetized with urethane (1.4 g/kg, dissolved in saline) after an overnight fast and were sacrificed to collect the liver, kidney, heart, and spleen. The organs were weighed after washing with saline and drying to calculate the organ coefficient, namely, the ratio between the weight of organs and the body in each rat.

[4] = test system: GK rats; assay: Oral glucose tolerance test (OGTT) in GK rats on day 28; type: in vivo, rat; settings: after 4 weeks of treatment, glucose 2 g/kg oral
Method: as §1

[5] = Body weight, food intake, organ coefficients and side effects in GK rats; type: in vivo, rat; settings: day 42
Method: as §1

[6] = single oral BBR 66.7 mg/kg alone
[7] = single oral BBR+TB-2 (66.7+33.3 mg/kg)
[8] = single treatment (On TB-2 treatments)
[9] = 33.3 mg/kg, single oral BBR+TB-2 (66.7+33.3 mg/kg)
[10] = 66.7 mg/kg, single oral BBR 66.7 mg/kg alone

| Compound | increase in Cmax on co-administration vs single treatment [1] [%] | exposure (AUC) of metabolite as share of the exposure of BBR ([1]; TB-2+BBR treatments) [%] | AUC ± SE [1, 6] [h ∗ ng/g] | AUC ± SE [1, 7] | exposure (AUC) of metabolite as share of the exposure of BBR [1, 8] [%] | Cmax [1, 9] [ng/g] | half-life [1, 9] [h] | Tmax [1, 9] [h] | Cmax [1, 10] [ng/g] | half-life [1, 10] [h] | Tmax [1, 10] [h] | metabolism after incubation (in words) ([2]; midazolam 20 μM, TB-2 1 μM) | effect on BBR metabolism and the generation of M2–M5 ([2]; BBR 1 μM, ABT 1 mM, TB-2 0.1 to 30 μM) | increase in AUC on co-administration vs single treatment [1] [%] | FBG levels compared with the vehicle group (in words) [3] | NFBG levels compared with the vehicle group (in words) [3] | decrease in the AUC of blood glucose in OGTT vs vehicle [4] [%] | decrease of blood glucose levels in OGTT at 30 min vs vehicle [4] [%] | effect on organ coefficients (liver and kidney) vs vehicle [5] |
| --- | --- | --- | --- | --- | --- | --- | --- | --- | --- | --- | --- | --- | --- | --- | --- | --- | --- | --- | --- |
| COc1c(O)ccc2cc3[n+](cc12)CCc1cc2c(cc1-3)OCO2 [M2, Thalifendine] | 117 | 144 | 5935.8 ± 164.9 | 6651.2 ± 469.0 h ∗ ng/g | 182 | 1660 ± 255 | 5 | 2 | 766 ± 54.3 | 6.8 | 4 |  |  |  |  |  |  |  |  |
| Cc1ncc2n1-c1ccc(Cl)cc1C(c1ccccc1F)=NC2 [midazolam] |  |  |  |  |  |  |  |  |  |  |  | significantly metabolized |  |  |  |  |  |  |  |
| Nn1nnc2ccccc21 [ABT, 1-aminobenzotriazole] |  |  |  |  |  |  |  |  |  |  |  |  | completely abrogated |  |  |  |  |  |  |
| COc1cc2c(cc1O)-c1cc3ccc(OC)c(OC)c3c[n+]1CC2 [M5, columbamine] |  | 11 | 362.8 ± 18.7 | 489.2 ± 59.2^∗ h ∗ ng/g | 11 | 184 ± 38.4 | 6 | 2 | 89.4 ± 15.6 | 9.5 | 2 |  |  | 35 |  |  |  |  |  |
| CN(C)C(=N)N=C(N)N [metformin] |  |  |  |  |  |  |  |  |  |  |  |  |  |  | significantly decreased | did not significantly decrease | 11.3 | 30 | no effect |
| COc1ccc2cc3[n+](cc2c1OC)CCc1cc(O)c(O)cc1-3 [M3, demethyleneberberine] | 174 | 12 | 234.5 ± 29.3 | 572.9 ± 34.7^∗∗∗ h ∗ ng/g | 7 | 106 ± 18.2 | 6.2 | 2 | 38.8 ± 5.6 | 18.5 | 2 |  |  | 144 |  |  |  |  |  |
| COc1cc2c(cc1O)CC[n+]1cc3c(OC)c(OC)ccc3cc1-2 [M4, jatrorrhizine] | 156 | 15 | 527.5 ± 25.0 | 690.8 ± 59.6^∗ h ∗ ng/g | 16 | 200 ± 33.7 | 7 | 2 | 78.2 ± 10.7 | 9.7 | 2 |  |  | 31 |  |  |  |  |  |

— publication PMC6353801, “Enhanced Anti-diabetic Effect of Berberine Combined With Timosaponin B2 in Goto-Kakizaki Rats, Associated With Increased Variety and Exposure of Effective Substances Through Intestinal Absorption” (Frontiers in Pharmacology, 2019)
